From article PMC9781803, “Phenotypic and Target-Directed Screening Yields New Acaricidal Alternatives for the Control of Ticks” (Molecules, 2022)

What was measured:
[1] = test system: embryonic cell line BME26; test: Phenotypic screening on BME26 cell cultures (MTT viability); assay type: cell-based, R. microplus
Experimental: The embryonic cell line BME26 from R. microplus (Centro de Biotecnologia, Universidade Federal do Rio Grande do Sul, Porto Alegre, RS, Brazil) was grown as adherent monolayers in a complete medium, as described previously, which consisted of L-15B300 medium supplemented with 5% heat-inactivated Fetal Bovine Serum (FBS) (Gibco Co., Grand Island, NY), 10% Tryptose Phosphate Broth (TPB) (BD), penicillin (100 U/mL), streptomycin ([…], Gibco Co., Grand Island, NY, USA), and 0.1% bovine lipoprotein concentrate (ICN), (pH 7.2). The suspension of embryonic BME26 cells from R. microplus was seeded into 24-well plates (5 × 10^5 cells/well) to a final volume of 500 μL in a complete medium, and allowed to attach. After 24 h incubation at 34 °C, the extracts (100 µg/mL final concentration) and the compounds were added to the final concentrations indicated (1–100 µM), and 0.05% dimethylsulfoxide (DMSO) was used in the negative control wells. After 24 h of treatment, 50 μL of 3-(4,5-dimethylthiazol-2-yl)-2,5-diphenyltetrazolium bromide (MTT) prepared in serum-free medium (5 mg/mL) was added to each well. The media were discarded after 2 additional hours of incubation, and 1 mL of acid-isopropyl alcohol (0.15% HCl in isopropyl alcohol) was added to dissolve the formazan crystals. The mixture was transferred to 1.5 mL tubes, centrifuged at 6000× g for 15 min, and the clear supernatant was collected in new tubes for absorbance measurement at 570 nm using quartz cuvettes in a UVmini-1240 UV–vis spectrophotometer (Shimadzu, Japan). Absorbance values of the control treatment were used for normalization (100% viability). The activity was determined by analysis using OriginLab8.5® sigmoidal regression (% of viable cells compared to the logarithm of the compound concentration). The half-maximal inhibitory concentration (IC50), defined as the drug concentration at which 50% of the cells were viable relative to the control (no drug added), was used as a measurement of activity. These experiments were performed in triplicate for each compound.

[2] = test system: J774.1 murine macrophages; test: Cytotoxicity assay on murine macrophages (MTT); assay type: cell-based; conditions: Mus musculus, J774.1, 48 h, read-out: IC50 (µM) Mammalian Cells
Experimental: J774.1 murine macrophages (ATCC, Rockville, MD, USA) were grown in a DMEM culture medium containing 4 mM L-glutamine, and supplemented with 10% FCS. The cells were seeded into a 96-well plate (5 × 10^4 cells in 200 µL culture medium) and incubated at 37 °C in a 5% CO2 atmosphere for 48 h, to allow cell adhesion before drug testing. Afterward, the cells were exposed for 48 h to the compounds (25–400 μM) or the vehicle (0.4% DMSO), and additional controls (cells in medium) were used in each test. Cell viability was then assessed by measuring the mitochondria-dependent reduction of MTT to formazan: for this, MTT in sterile PBS (0.2% glucose), pH 7.4, was added to the macrophages, to a final concentration of 0.1 mg/mL, and the cells were then incubated at 37 °C for 3 h. After removing the medium, the formazan crystals were dissolved in 180 μL of DMSO and 20 μL of MTT buffer (0.1 M glycine, 0.1 M NaCl, 0.5 mM EDTA, pH 10.5), and the absorbance was measured at 560 nm. The IC50 was defined as the drug concentration at which 50% of the cells were viable, relative to the control (no drug added), and was determined by analysis using OriginLab 8.5 Corporation, Northampton, MA, USA, sigmoidal regression (% of viable cells compared to the logarithm of the compound concentration). The tests were performed in triplicate in two independent experiments.

[3] = test system: fully engorged females of the Mozo susceptible strain of R. microplus; test: Adult Immersion Test (AIT); assay type: in vivo; conditions: compounds 1.5 mM, 15 min immersion, 14 days
Experimental: This essay was performed based on Drummond et al., 1973, as each group of 5 fully engorged females of the Mozo susceptible strain of R. microplus was immersed in 50 mL tubes containing 10 mL of compounds at different concentrations (0.5, 1, 1.5, 2, 3.5 mM) for 15 min in four replicates. Four negative control groups were used (DMSO 10%). After immersion, the fully engorged females were lightly dried with absorbent paper. They were then placed in 100 mm disposable Petri dishes with their respective identification, and immediately incubated at 27 °C in an atmosphere with relative humidity (RH) of 85-90% for 14 days. […] The tubes carrying the eggs were closed with hydrophilic cotton, and were returned to the incubator chamber under the same conditions until the eggs hatched. The reproductive efficacy, as well as % control of each compound on R. microplus, was calculated according to published reports. The results were verified in two independent experiments.

[4] = test system: R. microplus (Mozo strain) larvae; test: Larval Immersion Test (LIT); assay type: in vivo; conditions: compounds 1.0 mM, 10 min immersion, 24 h
Experimental: (§1) This assay was performed based on the method of Castro-Janer et al., 2011. Fully engorged females of R. microplus (Mozo strain) were incubated in Petri dishes at 27 °C and 85–90% relative humidity for 14 days. […] The tubes were incubated in the same conditions as described above. The larvae were ready for testing after 14 to 21 days from egg-hatching. For the test, the compounds were diluted in DMSO, and were later resuspended in distilled water, always using 15% DMSO of the final solution volume. The concentrations for the different compounds for the final immersion solution are 1 mg/mL for the extracts, and 1 mM for the compounds. […] For the immersion procedure, tubes containing the larvae were placed vertically, without the cotton plug, and the larvae were taken with a brush from the top of the tube, ensuring they were viable. A cluster with a diameter of 2 mm of larvae was collected with a brush, and was later immersed in each solution, as well as in both control solutions, for 10 min. After this time, the solutions were drained, and the larvae were placed in 8.5 cm × 7.5 cm Whatman No. 1 filter papers. The filters were folded in the middle of the 8.5 cm side, and closed with 3 bulldog clips, forming packets. These packets were incubated for 24 h, under the same conditions as described previously, and then the percent of mortality was determined, considering it as the % of the control.

R. microplus = test: Acaricidal activity on R. microplus (LIT and AIT, overall statement); assay type: in vivo; conditions: LIT 1 mM and AIT 1.5 mM
Experimental: as §1, with “After immersion, the fully engorged females were lightly dried with absorbent paper. […] The tubes carrying the eggs were closed with hydrophilic cotton, and were returned to the incubator chamber under the same conditions until the eggs hatched. The reproductive efficacy, as well as % control of each compound on R. microplus, was calculated according to published reports. The results were verified in two independent experiments. This” for “This”, “2011.” for “2011. Fully engorged females of R. microplus (Mozo strain) were incubated in Petri dishes at 27 °C and 85–90% relative humidity for 14 days.”, “volume.” for “volume. The concentrations for the different compounds for the final immersion solution are 1 mg/mL for the extracts, and 1 mM for the compounds.”

[5] = parameters: method as in PMID 28481276; conditions: experimental data; cited from earlier work
[6] = parameters: method as in PMID 28481276; conditions: in mice; cited from earlier work

Work on O=C(/C=C/c1cccs1)/C=C/c1cccs1 [compound 796] yielded an IC50 ([1]; BME26 cells, 24 h, MTT, read-out: IC50) of 15 ± 3 µM, an inhibition at 100 µM ([1]; synthetic compounds at 100 μM, BME26, 24 h, read-out: % of Growth Inhibition) of 93% and an IC50 [2] of over 50 µM. The “% of Mortality AIT” value [3] was 20 ± 1%, the “% of Mortality LIT” value [4] was 36 ± 8% and the “acaricidal activity (in words)” value (R. microplus) was “acaricidal potential against R. microplus similar to Amitraz”. For the same molecule, the “Mutagenicity by Ames Test” value [5] was “Negative *” and the “LD50 (mg/kg)” value [6] was >2000^+ mg/kg.
